# In patent publication US10927418B2, “Assays and methods for selecting a treatment regimen for a subject with leukemia” (CELATOR PHARMACEUTICALS, INC., priority 2015, dated 2021):
# System: ME-1 and MOLM-14 cells
# Test: CPX-351 uptake after quizartinib pretreatment
# Type: cell-based
# Protocol: Uptake of CPX-351 was measured by daunorubicin fluorescence as determined by flow cytometry normalized to untreated control. The x-axis in the graphs depicts the uptake of CPX-351 in standard units of fluorescence and the y-axis represents the normalized cell counts. […] It is clear from FIGS. 9A and 9B that as the pretreatment time is extended, the ability of some of the cells to take up CPX-351 is diminished. The results in FIGS. 9C and 9D are composites of the various timepoints up to 24 hours.
smiles,measurement,setting,value
CC(C)(C)c1cc(NC(=O)Nc2ccc(-c3cn4c(n3)sc3cc(OCCN5CCOCC5)ccc34)cc2)no1 [quizartinib],ability of cells to take up CPX-351 as quizartinib pretreatment time is extended,"10 nM quizartinib for 0, 2, 8, 16 and 24 hours, then CPX-351 for 2 hours",diminished
same,total population of cells exhibiting decreased daunorubicin fluorescence,pretreatment with quizartinib for 16 hours,approximately 50%
